From patent US8933070B2, “Methods of targeting PTEN mutant diseases and compositions therefor” (University Health Network, priority 2010, dated 2015)

Legend:
PLK2 = target: T1, PLK2 (Homo sapiens, UniProt Q9NYY3); assay: PLK2 inhibition assay (Z-Lyte); assay type: biochemical; details: dose of 10 μM; read-out: PLK2 relative inhibition percentage
T1 construct: purchased Invitrogen PV4204
Procedure: PLK2 inhibition was determined using the Z-Lyte assay kit from Invitrogen (cat# PV3802). The assay was performed using the recommended manufacturer's instructions with 60 μM ATP and 133 nM PLK2 (Invitrogen cat #PV4204). The % inhibition values were determined according to the manufacturer's directions and IC50 values were obtained using a non-linear 4 point logistic curve fit (XLfit4, IDBS)

PLK1 = target: T2, PLK1 (Homo sapiens, UniProt P53350); assay: PLK1 inhibition assay (Z-Lyte); assay type: biochemical; details: dose of 10 μM; read-out: PLK1 relative inhibition percentage
T2 construct: purchased Invitrogen PV3501
T2 sequence (P53350 whole entry): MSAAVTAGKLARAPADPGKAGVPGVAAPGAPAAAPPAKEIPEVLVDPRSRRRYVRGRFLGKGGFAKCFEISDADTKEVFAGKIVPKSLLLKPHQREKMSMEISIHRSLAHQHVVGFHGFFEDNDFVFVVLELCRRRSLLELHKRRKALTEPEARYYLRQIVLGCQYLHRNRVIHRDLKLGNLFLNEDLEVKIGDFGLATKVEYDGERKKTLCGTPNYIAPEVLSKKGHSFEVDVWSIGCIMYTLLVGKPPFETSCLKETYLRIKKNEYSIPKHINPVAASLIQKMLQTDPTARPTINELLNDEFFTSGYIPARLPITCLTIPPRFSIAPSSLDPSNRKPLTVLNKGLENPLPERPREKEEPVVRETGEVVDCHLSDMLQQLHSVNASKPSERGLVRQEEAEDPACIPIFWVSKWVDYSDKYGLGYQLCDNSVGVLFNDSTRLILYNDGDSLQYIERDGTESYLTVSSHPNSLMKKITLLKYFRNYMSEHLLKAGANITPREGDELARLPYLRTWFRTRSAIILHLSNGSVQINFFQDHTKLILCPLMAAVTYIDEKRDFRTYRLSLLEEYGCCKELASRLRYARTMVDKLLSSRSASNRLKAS

[1] = tested on: HCT116 p53^+/+ colon cancer cell line; assay: Cell growth inhibition, SRB assay, extended panel; assay type: cell-based; details: Homo sapiens, HCT-116, read-out: GI50 Range HCT116 p53^+/+
Procedure: (§1) Breast cancer cells (MCF-7, MDA-MB-468 and HCC1954), colon cancer cells (SW620) and lung cancer cells (A549), together with human mammary epithelial primary cells (HMEC) were seeded (1000 to 4000 per 80 μl per well depending on the cell growth rate) into 96-well plates 24 hours before compound overlay. Compounds were prepared as 10 mM stock solutions in 100% DMSO which were diluted with DMEM (Dulbecco's Modified Eagle's Medium) cell growth Medium (Invitrogen, Canada) containing 10% FBS (Fetal Bovine Serum) to concentrations ranging from 50 nM to 250 μM. Aliquots (20 μl) from each concentration were overlaid to 80 μl of the pre-seeded cells in the 96-plates to make final concentrations of 10 nM to 50 μM. The cells were cultured for 5 days before the Sulforhodamine B (SRB) assay was performed to determine the compound's cell growth inhibition activity.
(§2) Sulforhodamine B (Sigma, Canada) is a water-soluble dye that binds to the basic amino acids of cellular proteins. Thus, colorimetric measurement of the bound dye provides an estimate of the total protein mass that is related to the cell number. The cells are fixed in situ by gently aspirating off the culture media and adding 50 μl ice cold 10% Trichloroacetic Acid (TCA) per well and incubated at 4° C. for 30-60 min. The plates are washed with water five times and allowed to air dry for 5 min. Addition of 50 μl 0.4% (w/v) SRB solution in 1% (v/v) acetic acid to each well and incubatation for […] at RT completes the staining reaction. Following staining, plates are washed four times with 1% acetic acid to remove unbound dye and then allowed to air dry for 5 min. The stain is solubilized with 100 μl of 10 mM Tris pH 10.5 per well. Absorbance is read at 570 nm.
(§3) The percentage (%) of relative growth inhibition was calculated by comparing to DMSO-treated only cells (100%). GI50's were determined for compounds with cytotoxic activity. The GI50 was calculated using GraphPad PRISM software (GraphPad Software, Inc., USA).
(§4) In addition to the cell lines tested as described above, selected compounds have been assayed against an extended panel. These include: breast cancer cell lines (T-47D, MDA-MB-231, Hs578T, 8T-474, SKBr-3 and HCC1954), a lung cancer cell line (H358), brain cancer cell lines (A172, Hs683 and SK-N-SH), colon cancer cell lines (Colo 205, HCT-15, HCT116 p53^+/+ and HCT116 p53^−/−), ovarian cancer cell lines (OVCAR-3, SK-OV-3 and SW626), a melanoma cell line (518A2), a prostate cancer cell line (PC-3) and an immortalized breast cell line (184A1). The SRB assay described above was used to assay test compounds against the extended panel (Table 6).

[2] = tested on: HCT116 p53^−/− colon cancer cell line; assay: Cell growth inhibition, SRB assay, extended panel; assay type: cell-based; details: Homo sapiens, HCT-116, read-out: GI50 Range HCT116 p53^−/−
Procedure: as §1, §2, §3, §4

T1 sequence (Q9NYY3 whole entry): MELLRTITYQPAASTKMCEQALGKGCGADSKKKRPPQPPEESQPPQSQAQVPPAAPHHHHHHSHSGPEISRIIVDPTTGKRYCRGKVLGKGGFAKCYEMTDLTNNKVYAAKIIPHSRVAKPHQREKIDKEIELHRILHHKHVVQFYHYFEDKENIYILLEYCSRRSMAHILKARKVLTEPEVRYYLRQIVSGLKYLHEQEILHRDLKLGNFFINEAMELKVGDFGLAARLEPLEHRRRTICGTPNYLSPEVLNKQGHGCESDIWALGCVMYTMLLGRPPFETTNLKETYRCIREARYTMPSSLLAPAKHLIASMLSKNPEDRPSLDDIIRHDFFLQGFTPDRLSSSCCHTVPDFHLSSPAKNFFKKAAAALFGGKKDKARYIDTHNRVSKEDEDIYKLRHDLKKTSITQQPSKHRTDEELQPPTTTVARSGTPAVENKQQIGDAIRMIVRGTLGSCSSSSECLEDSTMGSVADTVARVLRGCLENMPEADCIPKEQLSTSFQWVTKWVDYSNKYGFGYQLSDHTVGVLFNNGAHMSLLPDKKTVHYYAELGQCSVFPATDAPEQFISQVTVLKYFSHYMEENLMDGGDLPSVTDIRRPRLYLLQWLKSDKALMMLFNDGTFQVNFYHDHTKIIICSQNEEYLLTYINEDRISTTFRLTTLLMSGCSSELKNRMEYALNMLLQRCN

inhibition at 10 µM (PLK2): < 50%
inhibition at 10 µM (PLK1): < 50%
GI50 [1]: < 5 µM
GI50 [2]: < 5 µM
SMILES: CN1CCN(c2ccc(/C=C/c3n[nH]c4cc(C=C5C(=O)Nc6ccccc65)ccc34)cn2)CC1 [Compound 32]
